The structures appear in SMILES notation. Activity calls are given as the source filed them. Peptide text beside a SMILES is read from it.

We go through five compounds from ChEMBL document CHEMBL2390818, “Peripherally acting novel lipo-endomorphin-1 peptides in neuropathic pain without producing constipation” (Bioorg Med Chem, 2013).

Data set [1] relates to Rattus norvegicus. The experiment in a line: Antiallodynic activity in Sprague-Dawley rat chronic constriction injury model assessed as change in ipsilateral hindpaw withdrawal threshold at 0.5 umol/kg, iv administered as single bolus dose separated by 2 to 3 days wash-out period. In kind it is functional, organism-based.
Data set [2] has as its system Rattus norvegicus. The experiment in a line: Antiallodynic activity in iv dosed Sprague-Dawley rat chronic constriction injury model assessed as change in ipsilateral hindpaw withdrawal threshold administered as single bolus dose separated by 2 to 3 days wash-out period measured at 15 mins to 2 hrs post dose. Format: functional, organism-based.
In data set [3] the test system is Rattus norvegicus. The experiment in a line: Antiallodynic activity in iv dosed Sprague-Dawley rat chronic constriction injury model assessed as change in ipsilateral hindpaw withdrawal threshold administered as single bolus dose separated by 2 to 3 days wash-out period. In kind it is functional.
Data set [4] has as its system Rattus norvegicus. Nature of the data set: Antinociceptive activity in contralateral hindpaw of Sprague-Dawley rat chronic constriction injury model at 5 umol/kg, iv administered as single bolus dose separated by 2 to 3 days wash-out period. Format: functional, organism-based.
Data set [5] deals with Rattus norvegicus. Nature of the data set: Toxicity in Sprague-Dawley rat assessed as induction of constipation measured as gastrointestinal propulsion rate at 16 umol/kg, iv administered as single bolus dose prior to aqueous activated charcoal suspension treatment measured after 1 hr (reference value: 65.3 +/- 3.1%). Format: organism-based. The conditions noted are these: in vivo.

Data set [6] deals with Rattus norvegicus. Nature of the data set: Toxicity in Sprague-Dawley rat assessed as induction of respiratory depression measured as change in hypercapnia-induced stimulation of minute ventilation at 1.6 umol/kg, iv administered as single bolus dose after 0.5 to 2 hrs. In kind it is organism-based. The following applies: in vivo.
The test system of data set [7] is Rattus norvegicus. Nature of the data set: Antiallodynic activity in Sprague-Dawley rat chronic constriction injury model assessed as change in ipsilateral hindpaw withdrawal threshold at 0.5 to 5 umol/kg, iv administered as single bolus dose. In kind it is functional, organism-based.
The subject of data set [8] is Rattus norvegicus. Nature of the data set: Toxicity in Sprague-Dawley rat castor oil-induced diarrhoea model assessed as induction of constipation at 1.6 to 16 umol/kg, iv administered as single bolus dose incubated for 5 mins prior to castor oil-challenge measured after 8 hrs. The following applies: in vivo. Format: organism-based.
The subject of data set [9] is Rattus norvegicus. Nature of the data set: Antiallodynic activity in iv dosed Sprague-Dawley rat chronic constriction injury model assessed as change in ipsilateral hindpaw withdrawal threshold administered as single bolus dose. In kind it is functional.
Data set [10] deals with Rattus norvegicus. The experiment in a line: Antiallodynic activity in Sprague-Dawley rat chronic constriction injury model assessed as change in ipsilateral hindpaw withdrawal threshold at 0.16 to 16 umol/kg, iv administered as single bolus dose separated by 2 to 3 days wash-out period. Format: functional, organism-based.

In general, ED50 refers to the midpoint of the dose-response relation. In the case of `CCCCCCC(N)C(=O)N[C@@H](Cc1c(C)cc(O)cc1C)C(=O)N1CCC[C@H]1C(=O)N[C@@H](Cc1c[nH]c2ccccc12)C(=O)N[C@@H](Cc1ccccc1)C(N)=O` (stereo partly specified) (HELM PEPTIDE1{[CCCCCCC(N)C(=O)[*:2]].[Cc1cc(O)cc(C)c1C[C@H](N[*:1])C(=O)[*:2]].P.W.F.[am]}$$$$V2.0), the result in the data set with Rattus norvegicus [1] was Active. Also, in the data set on Rattus norvegicus [2], the Activity result was “Dose-dependent effect”. Also, the ED50 in the data set with Rattus norvegicus [3] was determined as 6.18 µmol/kg. For the same compound, the outcome with Rattus norvegicus [4] was inactive.

Regarding `CCCCCCC(N)C(=O)N[C@@H](Cc1ccc(O)cc1)C(=O)N1CCC[C@H]1C(=O)N[C@@H](Cc1c[nH]c2ccccc12)C(=O)N[C@@H](Cc1ccccc1)C(N)=O` (stereo partly specified) (HELM PEPTIDE1{[CCCCCCC(N)C(=O)[*:2]].Y.P.W.F.[am]}$$$$V2.0), the result with Rattus norvegicus [1] and in the data set with Rattus norvegicus [7] was Active. In addition, the Activity entry was “Dose-dependent effect” in the data set with Rattus norvegicus [2], 77% in the data set on Rattus norvegicus [5], “Non-toxic” in the data set on Rattus norvegicus [6] and “Non-toxic” with Rattus norvegicus [8]. In addition, the ED50 worked out at 6.58 µmol/kg in the data set with Rattus norvegicus [3] and 6.64 µmol/kg with Rattus norvegicus [9]. Besides, the outcome in the data set with Rattus norvegicus [4] was inactive.

Turning to `CN1CC[C@]23c4c5ccc(O)c4O[C@H]2[C@@H](O)C=C[C@H]3[C@H]1C5`, the ED50 in the data set on Rattus norvegicus [3] was 2.64 µmol/kg.

On to `Cc1cc(O)cc(C)c1C[C@H](N)C(=O)N1CCC[C@H]1C(=O)N[C@@H](Cc1c[nH]c2ccccc12)C(=O)N[C@@H](Cc1ccccc1)C(N)=O`, for which the outcome with Rattus norvegicus [10] was inactive.

With `NC(=O)[C@H](Cc1ccccc1)NC(=O)[C@H](Cc1c[nH]c2ccccc12)NC(=O)[C@@H]1CCCN1C(=O)[C@@H](N)Cc1ccc(O)cc1`, in the data set on Rattus norvegicus [10], the result was inactive.
